We go through one compound from ChEMBL document CHEMBL3832541, “DailyMed|setid=33ddfdb1-b4bc-464d-a186-49c4b156279f | DOXORUBICIN HYDROCHLORIDE- doxorubicin hydrochloride injection, solution|Actavis Pharma, Inc”.

Holding throughout (type): ADME, organism-based
Data set [1] relates to Homo sapiens. Description: Evaluation of pharmacokinetic parameters for Doxorubicin hydrochloride following multiple intravenous administration of Doxorubicin hydrochloride solution to children, adolescents and adults subjects. The following applies: in vivo, dose 10 to 75 mg/m2, dosed compound id 8, dosed compound name DOXORUBICIN HYDROCHLORIDE, gender male and female, regimen Multiple dose, tissue Plasma.

Data set [2] can be described thus: (§1) Evaluation of pharmacokinetic parameters for Doxorubicin hydrochloride following single intravenous administration of Doxorubicin hydrochloride solution to patients with various types of tumors. The following applies: human, dosed compound id 8, dosed compound name DOXORUBICIN HYDROCHLORIDE, regimen Single dose, tissue Plasma, read-out: Protein binding (converted).

Data set [3] concerns Homo sapiens. The data set is described as §1. Particulars: in vivo, iv, dosed compound id 8, dosed compound name DOXORUBICIN HYDROCHLORIDE, regimen Single dose, tissue Plasma.

Structures are written as SMILES. Where “and” joins values, the source holds several entries; their conditions need not be identical. Equal values may be shown once.

Consider `COc1cccc2c1C(=O)c1c(O)c3c(c(O)c1C2=O)C[C@@](O)(C(=O)CO)C[C@@H]3O[C@H]1C[C@H](N)[C@H](O)[C@H](C)O1.Cl` [DOXORUBICIN HYDROCHLORIDE], for which the CL was 1443 mL/min/m2 and 1540 mL/min/m2 and 813 mL/min/m2 in the data set with Homo sapiens [1]; 433 mL/min/m2 with Homo sapiens [3] (gender female); 1088 mL/min/m2 with Homo sapiens [3] (gender male). In addition, the fraction unbound in data set [2] is 0.25. For the same compound, the t1/2-terminal with Homo sapiens [3] (gender female) was 35 h; with Homo sapiens [3] (gender male), 54 h; in the data set with Homo sapiens [3], 20 to 48 h. Besides, the t1/2-distribution with Homo sapiens [3] is 5 min.
